Measurements published in ChEMBL document CHEMBL4342519, “Triazolo-Peptidomimetics: Novel Radiolabeled Minigastrin Analogs for Improved Tumor Targeting” (J Med Chem, 2020).
Calls of active or inactive are those of the source. No cut-off for these calls is given here. *1 amine or outer side, *2 acyl side, *3 side chain or, on linkers, in order; H or OH if unused. Where a SMILES comes first, the peptide text is derived from it. [ ]: non-standard residue; d: D form. The star is where a group is joined. X2 = CCCC[C@@H](C(=O)[*:2])n1cc([C@H](Cc2c[nH]c3ccccc23)N[*:1])nn1; X4 = C[C@H](N[*:1])c1cn([C@@H](Cc2ccc(O)cc2)C(=O)[*:2])nn1; DOTA = O=C(O)CN1CCN(CC(=O)O)CCN(CC(=O)*)CCN(CC(=O)O)CC1; X3 = O=C([C@H](Cc1c[nH]c2ccccc12)n1cc(CN[*:1])nn1)[*:2]; X5 = C[C@@H](C(=O)[*:2])n1cc([C@@H](CCC(=O)O)N[*:1])nn1; X1 = O=C(Cn1cc([C@H](Cc2ccc(O)cc2)N[*:1])nn1)[*:2]; Nle = CCCC[C@H](N)C(=O)O

Experiments:
[1] = Half life in human plasma at 7.5 MBq measured up to 24 hrs at 37 degree C using 177Lu labeled compound by gamma-HPLC analysis; type: ADME, cell-free
[2] = Stability of compound in human plasma at 7.5 MBq assessed as intact compound measured after 24 hrs using 177Lu labeled compound by gamma-HPLC analysis; type: ADME, cell-free; details: for remaining at 24 h, 7.5 MBq: read-out: Stability; for Stability: 24 h
[3] = target: T1, Gastrin/cholecystokinin type B receptor (Homo sapiens) (UniProt P32239); assay: Binding affinity to CCK2R (unknown origin) expressed in human A431 cells assessed as receptor-mediated drug internalization at 5 kBq incubated up to 240 mins using 177Lu labeled compound by gamma counting method relative to control; type: cell-based
T1 sequence (whole entry): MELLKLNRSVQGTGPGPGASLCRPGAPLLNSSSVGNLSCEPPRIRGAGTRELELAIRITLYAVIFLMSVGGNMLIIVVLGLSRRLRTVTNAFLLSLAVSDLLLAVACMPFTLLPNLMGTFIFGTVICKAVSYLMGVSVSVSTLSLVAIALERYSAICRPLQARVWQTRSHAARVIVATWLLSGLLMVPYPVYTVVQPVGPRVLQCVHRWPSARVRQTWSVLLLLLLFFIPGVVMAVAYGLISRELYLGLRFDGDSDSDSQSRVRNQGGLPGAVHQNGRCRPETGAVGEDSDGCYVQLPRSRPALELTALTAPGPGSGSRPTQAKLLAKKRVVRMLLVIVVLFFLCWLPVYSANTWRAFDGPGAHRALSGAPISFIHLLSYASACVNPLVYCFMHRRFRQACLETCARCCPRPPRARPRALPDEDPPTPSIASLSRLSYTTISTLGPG

[4] = target: T2, Gastrin/cholecystokinin type B receptor (Homo sapiens, UniProt P32239); assay: Displacement of [177Lu] PP-F11N from CCK2R (unknown origin) transfected in A431 cells incubated for 1 hr at 4 degree C followed by compound washout with PBS buffer using Lu3+ labeled compound by Cobra-2 gamma counter method; type: cell-based
T2 sequence (P32239 whole entry): T1 sequence (whole entry)

[5] = Lipophilicity, log D of compound in PBS buffer at 0.25 MBq and pH 7.4 using 177Lu labeled compound by shake-flask method; type: physicochemical
[6] = Drug uptake in tumor of CD1 nu/nu mouse xenografted with human A431 cells transfected with CCK2R at 0.5 MBq after 4 hrs using 177Lu labeled compound by Cobra-2 gamma counter method relative to control; type: ADME, tissue-based, Neoplasm
[7] = target: T1, Gastrin/cholecystokinin type B receptor (Homo sapiens); assay: Binding affinity to CCK2R (unknown origin) expressed in human A431 cells assessed as receptor-mediated drug internalization at 5 kBq incubated 4 hrs using 177Lu labeled compound by gamma counting method relative to control; type: cell-based
[8] = target: T1, Gastrin/cholecystokinin type B receptor (Homo sapiens); assay: Potency index, ratio of [Nle15]MG11 IC50 to test compound IC50 for displacement of [177Lu] PP-F11N from CCK2R (unknown origin) transfected in A431 cells incubated for 1 hr at 4 degree C followed by compound washout with PBS buffer using Lu3+ labeled compound by Cobra-2 gamma counter method; type: cell-based
[9] = Ratio of drug uptake in tumor to kidney in CD1 nu/nu mouse xenografted with human A431 cells transfected with CCK2R at 0.5 MBq after 4 hrs using 177Lu labeled compound by Cobra-2 gamma counter method; type: ADME, tissue-based
[10] = Drug uptake in tumor of CD1 nu/nu mouse xenografted with human A431 cells transfected with CCK2R at 0.5 MBq after 1 hr using 177Lu labeled compound by Cobra-2 gamma counter method; type: ADME, tissue-based, Neoplasm
[11] = Drug uptake in tumor of CD1 nu/nu mouse xenografted with human A431 cells transfected with CCK2R at 0.5 MBq after 24 hrs using 177Lu labeled compound by Cobra-2 gamma counter method relative to control; type: ADME, tissue-based, Neoplasm
[12] = Drug recovery in tumor of CD1 nu/nu mouse xenografted with human A431 cells transfected with CCK2R at 0.5 MBq after 24 hrs using 177Lu labeled compound by Cobra-2 gamma counter method relative to control; type: ADME, tissue-based, Neoplasm
[13] = Ratio of half life of compound to [Nle15]MG11 in human plasma at 7.5 MBq measured up to 24 hrs at 37 degree C using 177Lu labeled compound by gamma-HPLC analysis; type: ADME, cell-free
[14] = Drug uptake in tumor of CD1 nu/nu mouse xenografted with human A431 cells transfected with CCK2R at 0.5 MBq, iv after 4 hrs using 177Lu labeled compound by Cobra-2 gamma counter method relative to [Nle15]MG11; type: ADME, organism-based, Neoplasm; details: in vivo
[15] = target: T1, Gastrin/cholecystokinin type B receptor (Homo sapiens); assay: Binding affinity to CCK2R (unknown origin) expressed in human A431 cells assessed as receptor-mediated drug internalization at 5 kBq incubated 2 to 4 hrs using 177Lu labeled compound by gamma counting method relative to control; type: cell-based

| Structure (SMILES) | half-life at 7.5 MBq [1] [h] | remaining at 24 h, 7.5 MBq [2] [%] | Drug uptake [3] [%] | IC50 [4] [nM] | logD ([5]; PBS buffer, read-out: logD) | Drug uptake [6] | Drug uptake [7] | Ratio IC50 [8] | Ratio [9] | Drug uptake [10] | Drug uptake [11] | Drug recovery [12] [%] | Ratio [13] | Stability [2] | logD ([5]; buffer) | Ratio [14] | fold change (FC) [15] |
| --- | --- | --- | --- | --- | --- | --- | --- | --- | --- | --- | --- | --- | --- | --- | --- | --- | --- |
| CCCC[C@H](NC(=O)[C@H](Cc1c[nH]c2ccccc12)NC(=O)CNC(=O)[C@H](Cc1ccc(O)cc1)NC(=O)[C@H](C)NC(=O)[C@@H](CCC(=O)O)NC(=O)CN1CCN(CC(=O)O)CCN(CC(=O)O)CCN(CC(=O)O)CC1)c1cn([C@@H](CC(=O)O)C(=O)N[C@@H](Cc2ccccc2)C(N)=O)nn1 | 114 | > 50 | 0.2 | > 50000 | -3.75 | Active | – | – | – | – | – | – | – | – | – | – | – |
| CCCC[C@H](NC(=O)[C@H](Cc1c[nH]c2ccccc12)NC(=O)CNC(=O)C[C@H](Cc1ccc(O)cc1)NC(=O)[C@H](C)NC(=O)[C@@H](CCC(=O)O)NC(=O)CN1CCN(CC(=O)O)CCN(CC(=O)O)CCN(CC(=O)O)CC1)C(=O)N[C@@H](CC(=O)O)C(=O)N[C@@H](Cc1ccccc1)C(N)=O | 4.7 | – | 37.4 | 25.8 | -3.83 | – | – | – | – | – | – | – | – | – | – | – | – |
| CCCC[C@H](NC(=O)[C@H](Cc1c[nH]c2ccccc12)NC(=O)CNC(=O)[C@H](Cc1ccc(O)cc1)NC(=O)[C@H](C)NC(=O)[C@@H](CCC(=O)O)NC(=O)CN1CCN(CC(=O)O)CCN(CC(=O)O)CCN(CC(=O)O)CC1)C(=O)N[C@@H](CC(=O)O)C(=O)N[C@@H](Cc1ccccc1)c1c[nH]nn1 | 34.9 | > 50 | 2.5 | 200 | -3.69 | – | – | – | – | – | – | – | – | – | – | – | – |
| CCCC[C@H](NC(=O)[C@H](Cc1c[nH]c2ccccc12)NC(=O)CNC(=O)[C@H](Cc1ccc(O)cc1)NC(=O)[C@H](C)NC(=O)[C@@H](CCC(=O)O)NC(=O)CN1CCN(CC(=O)O)CCN(CC(=O)O)CCN(CC(=O)O)CC1)C(=O)N[C@@H](CC(=O)O)c1cn([C@@H](Cc2ccccc2)C(N)=O)nn1 | 35.9 | > 50 | 0.1 | > 50000 | -3.95 | – | – | – | – | – | – | – | – | – | – | – | – |

Further compounds by falling IC50 [4], results first:

| half-life at 7.5 MBq [1] [h] | remaining at 24 h, 7.5 MBq [2] [%] | Drug uptake [3] [%] | IC50 [4] [nM] | logD ([5]; PBS buffer, read-out: logD) | Drug uptake [6] | Drug uptake [7] | Ratio IC50 [8] | Ratio [9] | Drug uptake [10] | Drug uptake [11] | Drug recovery [12] [%] | Ratio [13] | Stability [2] | logD ([5]; buffer) | Ratio [14] | fold change (FC) [15] | Structure (SMILES) |
| --- | --- | --- | --- | --- | --- | --- | --- | --- | --- | --- | --- | --- | --- | --- | --- | --- | --- |
| 350 | > 50 | 33.1 | 25.4 | -3.98 | Active | Active | – | – | – | – | – | 90 | – | – | – | – | CCCC[C@@H](C(=O)N[C@@H](CC(=O)O)C(=O)N[C@@H](Cc1ccccc1)C(N)=O)n1cc([C@H](Cc2c[nH]c3ccccc23)NC(=O)CNC(=O)[C@H](Cc2ccc(O)cc2)NC(=O)[C@H](C)NC(=O)[C@@H](CCC(=O)O)NC(=O)CN2CCN(CC(=O)O)CCN(CC(=O)O)CCN(CC(=O)O)CC2)nn1 ({DOTA}-[dE]AYG[X2]DF-NH2) |
| 51.4 | > 50 | 29.6 | 20.9 | -3.9 | Active | Active | – | – | – | – | – | – | – | – | – | – | CCCC[C@H](NC(=O)[C@H](Cc1c[nH]c2ccccc12)NC(=O)CNC(=O)[C@H](Cc1ccc(O)cc1)n1cc([C@H](C)NC(=O)[C@@H](CCC(=O)O)NC(=O)CN2CCN(CC(=O)O)CCN(CC(=O)O)CCN(CC(=O)O)CC2)nn1)C(=O)N[C@@H](CC(=O)O)C(=O)N[C@@H](Cc1ccccc1)C(N)=O ({DOTA}-[dE][X4]GW[Nle]DF-NH2) |
| 8.5 | – | 44.5 | 18.8 | -3.73 | – | – | – | – | – | – | – | – | – | – | – | – | CCCC[C@H](NC(=O)[C@H](Cc1c[nH]c2ccccc12)NC(=O)CCNC(=O)[C@H](Cc1ccc(O)cc1)NC(=O)[C@H](C)NC(=O)[C@@H](CCC(=O)O)NC(=O)CN1CCN(CC(=O)O)CCN(CC(=O)O)CCN(CC(=O)O)CC1)C(=O)N[C@@H](CC(=O)O)C(=O)N[C@@H](Cc1ccccc1)C(N)=O |
| 3.8 | – | 41.7 | 15.6 | -4 | Active | Active | – | – | – | – | – | – | Unstable | – | – | – | CCCC[C@H](NC(=O)[C@H](Cc1c[nH]c2ccccc12)n1cc(CNC(=O)[C@H](Cc2ccc(O)cc2)NC(=O)[C@H](C)NC(=O)[C@@H](CCC(=O)O)NC(=O)CN2CCN(CC(=O)O)CCN(CC(=O)O)CCN(CC(=O)O)CC2)nn1)C(=O)N[C@@H](CC(=O)O)C(=O)N[C@@H](Cc1ccccc1)C(N)=O ({DOTA}-[dE]AY[X3][Nle]DF-NH2) |
| 3.9 | – | 32.2 | 15.4 | -3.86 | 1.48 % ID/g | 11.7% | – | 1.83 | Active | < 0.9 % ID/g | 34 | – | – | – | – | – | CCCC[C@H](NC(=O)[C@H](Cc1c[nH]c2ccccc12)NC(=O)CNC(=O)[C@H](Cc1ccc(O)cc1)NC(=O)[C@H](C)NC(=O)[C@@H](CCC(=O)O)NC(=O)CN1CCN(CC(=O)O)CCN(CC(=O)O)CCN(CC(=O)O)CC1)C(=O)N[C@@H](CC(=O)O)C(=O)N[C@@H](Cc1ccccc1)C(N)=O ({DOTA}-[dE]AYGW[Nle]DF-NH2) |
| 7.7 | – | 39.6 | 8 | -3.98 | Active | Active | 2 | – | – | – | – | – | – | – | – | – | CCCC[C@H](NC(=O)[C@H](Cc1c[nH]c2ccccc12)NC(=O)CNC(=O)[C@H](Cc1ccc(O)cc1)NC(=O)[C@H](C)n1cc([C@@H](CCC(=O)O)NC(=O)CN2CCN(CC(=O)O)CCN(CC(=O)O)CCN(CC(=O)O)CC2)nn1)C(=O)N[C@@H](CC(=O)O)C(=O)N[C@@H](Cc1ccccc1)C(N)=O ({DOTA}-[X5]YGW[Nle]DF-NH2) |
| 2.6 | – | 54.3 | 1.7 | – | 3.91 % ID/g | 31% | 10 | 5.81 | Active | Active | 75 | – | Unstable | -4.06 | 2.6 | 2 | CCCC[C@H](NC(=O)[C@H](Cc1c[nH]c2ccccc12)NC(=O)Cn1cc([C@H](Cc2ccc(O)cc2)NC(=O)[C@H](C)NC(=O)[C@@H](CCC(=O)O)NC(=O)CN2CCN(CC(=O)O)CCN(CC(=O)O)CCN(CC(=O)O)CC2)nn1)C(=O)N[C@@H](CC(=O)O)C(=O)N[C@@H](Cc1ccccc1)C(N)=O ({DOTA}-[dE]A[X1]W[Nle]DF-NH2) |
